Test results as given in patent US10000469B2, “Heat shock protein 70 (hsp-70) receptor ligands” (Duke University, priority 2014, dated 2018).

Legend:
[1] = target: T1, Hsp70i, Hsc70, Grp78, Grp75, Hsp90 (Homo sapiens, UniProt P0DMV8); assay: Elution of HEK 293T cell lysate proteins from the ATP resin (silver stain, Western blot); format: binding; conditions: few non-specific eluted proteins
T1 construct: endogenous in cells; host or cells: HEK 293T
Description: (§1) FLECS Screen: A pEGFP-tagged Hsp70i was (plasmid 15215, Addgene, Cambridge, Mass.) used in the FLECS assay and was originally cloned according to [Zeng et al. (2004). Hsp70 dynamics in vivo: effect of heat shock and protein aggregation. Journal of cell science 117, 4991-5000]. ATP used in the assay was purchased from Sigma (St. Louis, Mo.) and a 200 mM stock was prepared with low salt buffer (150 mM NaCl, 25 mM Tris, pH 7.5, 60 mM MgCl2). The γ-phosphate ATP sepharose was synthesized as previously described and stored in low salt buffer [Haystead et al. (1993). Gamma-phosphate-linked ATP-sepharose for the affinity purification of protein kinases. Rapid purification to homogeneity of skeletal muscle mitogen-activated protein kinase kinase. European journal of biochemistry/FEBS 214, 459-467]. FuGENE 6 transfection reagent (Roche, Mannheim, Germany) was used for transfection of GFP-Hsp70i into HEK 293T cells, following the manufacturer protocol. The transfection ensued for 48 hours, upon which time the cells were harvested and lysed in cell lysis buffer (150 mM NaCl, 50 mM Tris, pH 7.5, 1% Triton X-100, 1 mM EDTA, 1 mM DTT, and 1 tablet Complete Mini protease inhibitor (Roche)). Cell lysates were stored at −80° C. until further use. Upon binding the resin lysates were washed 3× with high stringency wash buffer (1 M NaCl, 25 mM Tris, pH 7.5, 60 mM MgCl2, 1 mM DTT) and 3× with low stringency wash buffer (150 mM NaCl, 25 mM Tris, pH 7.5, 60 mM MgCl2, 1 mM DTT). Next the lysates were transferred to 0.2 μm PVDF filter 96-well plate (Corning, Corning, N.Y.) sitting on top of a black flat-bottomed 96-well catch plate (Corning). […]
(§2) HS-72 specifically targets Hsp70i over other members of the Hsp70 superfamily. […] To more thoroughly determine the specificity of HS-72 for Hsp70i, the HEK 293T eluates were also analyzed for other Hsp70 family members Hsc70, Grp78, and Grp75, as well as Hsp90 by Western blot. […] The linker on the resin was cleaved using sodium dithionite and the samples were subjected to SDS-PAGE and analyzed by Western blot, silver stain, and mass spectrometry. […]

[2] = tested on: Hsp70i, Hsc70, Grp78, Grp75, Hsp90; assay: as above; format: binding; conditions: Western blot
Description: as §1, §2

Her2 and Akt = assay: Degradation assay (Western blot of client proteins); format: cell-based
Description: Western Blotting: SDS-PAGE was carried out using Criterion™ Cell system using pre-casted 4-20% or 4-15% Criterion™ Tris-HCl gels (BioRad, Hercules, Calif.). For Western blotting gels were run at 200V for 1 hour using the PowerPac basic power supply (BioRad, Hercules, Calif.). Next, gels were transferred to nitrocellulose for blotting at 100V for 1 hour (Fisher Scientific, Waltham, Mass.). Nitrocellulose membranes were blocked with 5% dry non-fat milk in phosphate-buffered saline (PBS) with 0.01% Tween-20 for 1 hour at room temperature. Membranes were incubated with primary antibodies (1:1000 dilution) overnight at 4° C. The next day membranes were washed 3× in PBS-Tween, incubated for 1 hour at room temperature with secondary antibodies, and further washed 3× in PBS-Tween. ECL Plus Western blotting reagent (Pierce Biotechnology, Rockford, Ill.) was used to detect antibodies. GFP, Her2, Akt, Hsp70, Hsc70, Grp78, Grp75, and Hsp90 primary antibodies and all associated secondary antibodies were purchased from Cell Signaling Technology (Danvers, Mass.).
Degradation Assay: The specified cells were seeded overnight and then treated with the indicated concentration of compound for 24 hours. The cells were then harvested and subjected to analysis by Western blot.

SkBr3 = assay: Cell proliferation, SkBr3; format: cell-based; conditions: SkBr3
Description: Cell Proliferation: Cell proliferation was determined using a Hoechst stain (Sigma, St. Louis, Mo.) to quantify DNA. 5,000 cells of the designated cell line were plated in 96 well plates and treated the next day, designated as time point 0, with the indicated concentration of the specified compound maintained for the duration of the assay. At the indicated time points the media was removed and plated frozen at −80° C. Double distilled H2O was then added and the plates were incubated at 37° C. for 1 hour. After 1 hour the plates were frozen at −80° C. After freezing the plates were thawed and Hoechst stain was diluted 1:1000 in THE buffer (10 mM Tris, 2M NaCl, 1 mM Na2EDTA). The final fluorescence was measured on the Victor X2 plate reader at 355/460 nm, and cell proliferation was determined with the formula: % Cell Proliferation=100×(Sample fluorescence−background fluorescence)/(Control fluorescence−background fluorescence).

Hsp70i = Hsp70i (Homo sapiens, UniProt P0DMV8); assay: HS-72 affinity resin pull-down from HEK293T lysate, Hsp70i; format: binding; parameters: endogenous in cells; host or cells: HEK 293T; conditions: free HS-72 incubated with lysate
Hsp70i, sequence (P0DMV8 whole entry): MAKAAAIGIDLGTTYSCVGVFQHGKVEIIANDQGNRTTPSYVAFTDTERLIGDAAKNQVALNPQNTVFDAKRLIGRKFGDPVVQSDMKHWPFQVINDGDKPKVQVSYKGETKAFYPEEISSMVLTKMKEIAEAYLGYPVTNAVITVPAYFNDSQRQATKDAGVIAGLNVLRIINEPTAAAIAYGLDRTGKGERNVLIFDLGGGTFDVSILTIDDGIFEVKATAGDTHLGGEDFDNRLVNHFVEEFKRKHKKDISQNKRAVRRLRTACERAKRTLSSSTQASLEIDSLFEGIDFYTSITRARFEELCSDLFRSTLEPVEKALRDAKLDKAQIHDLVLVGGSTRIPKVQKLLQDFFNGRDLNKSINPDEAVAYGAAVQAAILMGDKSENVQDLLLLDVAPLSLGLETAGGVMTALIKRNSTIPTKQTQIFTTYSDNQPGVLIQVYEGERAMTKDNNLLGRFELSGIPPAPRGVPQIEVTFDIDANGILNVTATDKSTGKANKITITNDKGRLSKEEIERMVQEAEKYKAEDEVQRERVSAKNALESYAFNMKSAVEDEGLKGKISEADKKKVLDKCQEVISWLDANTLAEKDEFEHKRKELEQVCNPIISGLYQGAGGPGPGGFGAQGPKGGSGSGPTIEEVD
Description: HS-72 specifically targets Hsp70i over other members of the Hsp70 superfamily. To test the selectivity of the HS-72 scaffold against the broader purinome, HEK 293T cell extracts or pig bladder tissue lysates were applied to the ATP resin and eluted with HS-72, as described for FLECS. The eluates were characterized by SDS-PAGE, silver stain, and MS analysis. […] To more thoroughly determine the specificity of HS-72 for Hsp70i, the HEK 293T eluates were also analyzed for other Hsp70 family members Hsc70, Grp78, and Grp75, as well as Hsp90 by Western blot. […] Next, an affinity resin was synthesized using the HS-72 scaffold, similar to a previously described affinity resin targeting Hsp90 [Hughes et al. (2012). […] Bioorganic & medicinal chemistry 20, 3298-3305]. HEK 293T cell lysate was applied to the resin and subjected to several washes. To confirm selectivity of the HS-72 affinity resin for Hsp70i, free HS-72 was incubated with lysate to inhibit Hsp70i binding to the affinity resin. The linker on the resin was cleaved using sodium dithionite and the samples were subjected to SDS-PAGE and analyzed by Western blot, silver stain, and mass spectrometry. […] These studies identified HS-72 as the first example of a small molecule that can selectively discriminate Hsp70i from other members of the Hsp70 superfamily.

[3] = HS-72 in combination with HS-10

T1 sequence (P0DMV8 2-641): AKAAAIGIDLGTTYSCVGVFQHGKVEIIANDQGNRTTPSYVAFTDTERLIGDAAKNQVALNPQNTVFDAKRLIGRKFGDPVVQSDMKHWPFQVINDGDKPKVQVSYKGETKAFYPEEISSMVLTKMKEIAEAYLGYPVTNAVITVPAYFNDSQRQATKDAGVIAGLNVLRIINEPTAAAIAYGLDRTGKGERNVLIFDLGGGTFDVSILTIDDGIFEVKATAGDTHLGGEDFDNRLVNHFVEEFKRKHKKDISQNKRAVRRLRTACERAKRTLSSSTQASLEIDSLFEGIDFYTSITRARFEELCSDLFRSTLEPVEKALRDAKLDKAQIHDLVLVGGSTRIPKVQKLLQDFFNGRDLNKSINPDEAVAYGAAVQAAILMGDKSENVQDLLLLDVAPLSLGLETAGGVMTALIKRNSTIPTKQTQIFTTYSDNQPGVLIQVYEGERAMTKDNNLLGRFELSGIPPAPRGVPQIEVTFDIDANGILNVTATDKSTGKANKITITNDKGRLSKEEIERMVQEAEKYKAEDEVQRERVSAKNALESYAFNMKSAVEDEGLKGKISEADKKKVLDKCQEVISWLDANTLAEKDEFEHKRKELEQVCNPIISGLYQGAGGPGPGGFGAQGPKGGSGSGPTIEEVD

CCCn1c(NC(=O)[C@H]2CCCN(c3cnccn3)C2)nc2ccccc21 [HS-72, (S)—N-(1-propyl-1H-benzo[d]imidazol-2-yl)-1-(pyrazin-2-yl)piperidine-3-carboxamide]
elution of Hsp70 from ATP resin [1]: elutes Hsp70 | Hsp70 family members and Hsp90 eluted from the ATP resin [2]: only inducible Hsp70 was eluted | Akt degradation (Her2 and Akt; [3]): significant Akt degradation | levels of Her2 (Her2 and Akt; [3]): completely abolished | Akt and Her2 expression (Her2 and Akt; compound alone, BT474 breast cancer cells): dose dependent reduction | cell proliferation (SkBr3): inhibits proliferation | cell proliferation, combination with HS-10 (SkBr3): additive effect | cell proliferation, combination with HS-10 (SkBr3; listed as HS72): synergism | competition of Hsp70i binding to the affinity resin by free compound (Hsp70i): able to block this interaction
